Measurements published in patent US20050256103A1, “Indole derivative having piperidine ring” (Eisai Co., Ltd., priority 2004, published 2005).
Where two headings read alike, the source gives them in different places.

Key:
5-HT1A receptor = target: T1, 5-HT1A receptor (Sus scrofa, UniProt A0A4X1UTF5); test: Affinity for serotonin 1A receptor: inhibition of [3H]MPPF binding in swine hippocampal membrane fraction; conditions: for IC50: swine hippocampal membrane, 37°C 30 min; for L/H ratio: low affinity IC50 divided by high affinity IC50, 1 or smaller = no intrinsic activity, 2 or greater = intrinsic activity
T1 construct: Swine hippocampus was homogenized in a 50 mM Tris-Hcl buffer; from tissue; host or cells: swine hippocampus, membrane fraction
T1 sequence (A0A4X1UTF5 1-422): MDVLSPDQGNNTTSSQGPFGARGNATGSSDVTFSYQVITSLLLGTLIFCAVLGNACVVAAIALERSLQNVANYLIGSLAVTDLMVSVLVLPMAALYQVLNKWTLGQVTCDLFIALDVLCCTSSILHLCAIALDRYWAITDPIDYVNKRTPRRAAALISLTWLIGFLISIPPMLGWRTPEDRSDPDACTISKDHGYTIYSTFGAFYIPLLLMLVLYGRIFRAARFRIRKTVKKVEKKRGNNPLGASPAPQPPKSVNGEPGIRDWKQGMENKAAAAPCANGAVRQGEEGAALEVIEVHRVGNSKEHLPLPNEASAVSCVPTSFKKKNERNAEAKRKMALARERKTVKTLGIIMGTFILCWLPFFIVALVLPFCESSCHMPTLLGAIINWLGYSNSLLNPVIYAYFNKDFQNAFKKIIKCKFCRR
Text: (1) The affinity of a test substance for a 5-HT1A receptor was examined by an inhibition experiment, in which the inhibitory effect of the test substance against the binding of [^3H]-4-(2′-methoxy)phenyl-1-(2′-(N-2″-pyridinyl)-p-fluorobenzamido)ethyl-piperazine (MPPF) that selectively binds to the 5-HT1A receptor in a swine hippocampal membrane fraction was examined. The 5-HT1A receptor that is a G-protein binding receptor becomes a G-protein binding state with addition of MgCl2. In contrast, it becomes a G-protein non-binding state with addition of guanylylimido diphosphate (Gpp(NH)p). […] Thus, both the affinity of a test substance to the receptor that was in a state of not binding to the G-protein and the affinity of the test substance to the receptor that was in a state of binding to the G-protein were obtained. Then, the obtained values were compared to each other, so as to estimate the level of the intrinsic activity of the test substance. Theoretically, when the value (L/H) obtained by dividing the affinity of a test substance to the receptor that is in a low affinity state (IC50 value) by the affinity of a test substance to the receptor that is in a high affinity state (IC50 value) is 1 or less, the intrinsic activity thereof is zero. The greater this value, the higher the intrinsic activity that can be obtained.
Swine hippocampus was homogenized in a 50 mM Tris-Hcl buffer (pH 7.4; hereinafter referred to as buffer A) that had been cooled on ice. The suspension was centrifuged at 40,000×g for 15 minutes. The obtained pellet was suspended in buffer solution A, and the thus obtained solution was then centrifuged at 40,000×g for 15 minutes. The same operation was repeated 2 or 3 times. The finally obtained pellet was suspended in a buffer solution A in an amount 10 times the wet weight of the swine hippocampus, so as to obtain a membrane fraction. The obtained membrane fraction was stored at −80° C. until use.
A mixture (0.5 ml) used for incubation comprised an appropriate amount of the membrane fraction, a test substance with a desired concentration, MgCl2 (final concentration: 10 mM) or Gpp(NH)p (final concentration: 1 mM), [^3H]MPPF (final concentration: 0.5 nM), dimethyl sulfoxide (final concentration: 1% (v/v)), and a 50 mM Tris-Hcl buffer (pH 7.4). The reaction was initiated with addition of the membrane fraction, and the mixture was incubated at 37° C. for 30 minutes. After completion of the incubation, the mixture was subjected to vacuum filtration with a glass filter, using Cell Harvester. The filter was washed with buffer solution A that had been cooled on ice. Thereafter, radioactivity binding to the receptor was measured with a liquid scintillation counter. Non-specific binding was defined as binding detected in the presence of 10 μM WAY-100,635.

serotonin 1A receptor = target: T2, serotonin 1A receptor (Mus musculus, UniProt Q64264); test: Antagonistic effect on serotonin 1A receptor agonist (8-OH-DPAT)-induced hypothermia in mouse; type: in vivo; conditions: CD-1 (ICR) male mice; inhibition of hypothermia by 8-OH-DPAT 0.5 mg/kg sc; test substance 15 minutes before agonist
T2 construct: into the rectum of CD-1 (ICR) male mice (25-45 g); from tissue; host or cells: living CD-1 (ICR) male mice (in vivo)
T2 sequence (Q64264 1-421): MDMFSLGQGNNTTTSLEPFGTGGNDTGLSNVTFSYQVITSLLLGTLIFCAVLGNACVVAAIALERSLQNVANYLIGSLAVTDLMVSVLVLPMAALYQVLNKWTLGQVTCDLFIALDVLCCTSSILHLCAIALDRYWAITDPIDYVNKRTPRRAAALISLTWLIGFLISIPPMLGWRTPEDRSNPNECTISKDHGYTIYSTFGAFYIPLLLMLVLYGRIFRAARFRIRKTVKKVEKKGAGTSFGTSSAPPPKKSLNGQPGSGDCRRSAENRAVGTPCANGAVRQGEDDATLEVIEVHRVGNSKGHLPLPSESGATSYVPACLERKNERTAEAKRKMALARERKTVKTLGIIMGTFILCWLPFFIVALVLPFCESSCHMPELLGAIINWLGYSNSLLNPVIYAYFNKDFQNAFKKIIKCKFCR
Procedure: (1) A thermistor probe was inserted at a depth of approximately 2 cm into the rectum of CD-1 (ICR) male mice (25-45 g), so as to measure the body temperature thereof. Body temperature is decreased by subcutaneous administration of serotonin 1A receptor agonist (8-hydroxy-dipropylaminotetralin (8-OH-DPAT) 0;5 mg/kg. Since a serotonin 1A antagonist inhibits such action, the antagonistic effect of a test substance to a serotonin 1A receptor was evaluated using the inhibitory effect of the hypothermia as an index. The test results are shown in Table 2 indicated below. A test substance was administered 15 minutes before the administration of the serotonin 1A agonist. A serotonin 1A partial agonist alone decreases the body temperature, depending on the degree of the agonistic action thereof. In addition, it has a weak antagonistic effect on 8-OH-DPAT-induced hypothermia.

[1] = [3H]MPPF 0.5 nM, receptor in high affinity (G-protein binding, MgCl2 10 mM) state, read-out: High affinity IC50
[2] = [3H]MPPF 0.5 nM, receptor in low affinity (G-protein non-binding, Gpp(NH)p 1 mM) state, read-out: Low affinity IC50

Q: What does the source list for `COc1ccc2c(C)noc2c1CCN1CCC(n2ccc3ccc(C(N)=O)cc32)CC1` [Compound 1, 1-{1-[2-(6-methoxy-3-methylbenz[d]isoxazol-7-yl)ethyl]piperidin-4-yl}-1H-indole-6-carboxamide]?
A: IC50 (5-HT1A receptor; High affinity IC50, [3H]MPPF 0.5 nM, receptor in high affinity (G-protein binding, MgCl2 10 mM) state): 0.16 nM; IC50 (5-HT1A receptor; Low affinity IC50, [3H]MPPF 0.5 nM, receptor in low affinity (G-protein non-binding, Gpp(NH)p 1 mM) state): 0.26 nM; L/H ratio (5-HT1A receptor): 1.6; ED50 (serotonin 1A receptor): 0.3 mg/kg, sc

Q: Which IC50 (5-HT1A receptor; [1]) does the source give for `COc1cc2onc(C)c2cc1CCN1CCC(n2ccc3ccc(C(N)=O)cc32)CC1` [Compound 2, 1-{1-[2-(6-methoxy-3-methylbenzo[d]isoxazol-5-yl)ethyl]piperidin-4-yl}-1H-indole-6-carboxamide] here?
A: 0.27 nM

Q: And the IC50 (5-HT1A receptor; [2])?
A: 0.35 nM

Q: And the L/H ratio (5-HT1A receptor)?
A: 1.3

Q: What about the ED50 (serotonin 1A receptor) of the same molecule?
A: 0.4 mg/kg, sc

Q: `CON=C1CCc2c(CCN3CCC(n4ccc5ccc(C(N)=O)cc54)CC3)c(OC)cc(OC)c21` [Compound 11, 1-{1-[2-(5,7-dimethoxy-1-methoxyiminoindan-4-yl)ethyl]piperidin-4-yl}-1H-indole-6-carboxamide] was tested. Which IC50 (5-HT1A receptor; [1]) did it give?
A: 0.22 nM

Q: What about the IC50 (5-HT1A receptor; [2]) of the same molecule?
A: 0.1 nM

Q: What about the L/H ratio (5-HT1A receptor) of the same molecule?
A: 0.4

Q: With `COc1cc2c(cc1CCN1CCC(n3ccc4ccc(C(N)=O)cc43)CC1)C(=O)CCCO2` [Compound 12, 1-{1-[2-(8-methoxy-5-oxo-2,3,4,5-tetrahydrobenzo[b]oxepin-7-yl)ethyl]piperidin-4-yl}-1H-indole-6-carboxamide] as the molecule, how does the IC50 (5-HT1A receptor; [1]) read?
A: 0.17 nM

Q: What about the IC50 (5-HT1A receptor; [2]) of the same molecule?
A: 0.16 nM

Q: And the L/H ratio (5-HT1A receptor)?
A: 0.9

Q: How did the IC50 (5-HT1A receptor; [1]) turn out when `CON=C1CCCOc2cc(OC)c(CCN3CCC(n4ccc5ccc(C(N)=O)cc54)CC3)cc21` [Compound 13, 1-{1-[2-(8-methoxy-5-methoxyimino-2,3,4,5-tetrahydrobenzo[b]oxepin-7-yl)ethyl]piperidin-4-yl}-1H-indole-6-carboxamide] was run?
A: 0.32 nM

Q: And the IC50 (5-HT1A receptor; [2])?
A: 0.22 nM

Q: And the L/H ratio (5-HT1A receptor)?
A: 0.7

Q: `COc1ccc2c(c1CCN1CCC(n3ccc4ccc(C(N)=O)cc43)CC1)CC(C)(C)C2=O` [Compound 14, 1-{1-[2-(5-methoxy-2,2-dimethyl-1-oxoindan-4-yl)ethyl]piperidin-4-yl}-1H-indole-6-carboxamide] was tested. Which IC50 (5-HT1A receptor; [1]) did it give?
A: 0.46 nM

Q: And the IC50 (5-HT1A receptor; [2])?
A: 0.34 nM

Q: And the L/H ratio (5-HT1A receptor)?
A: 0.7

Q: `CNC(=O)c1ccc2ccn(C3CCN(CCc4c(OC)ccc5nc(C)oc45)CC3)c2c1` [Compound 15] was tested. Which IC50 (5-HT1A receptor; [1]) did it give?
A: 0.72 nM

Q: What about the IC50 (5-HT1A receptor; [2]) of the same molecule?
A: 0.61 nM

Q: And the L/H ratio (5-HT1A receptor)?
A: 0.8

Q: What does the source list for `CNC(=O)c1ccc2ccn(C3CCN(CCc4cc5nc(C)oc5cc4OC)CC3)c2c1` [Compound 16, 1-{1-[2-(6-methoxy-2-methylbenzoxazol-5-yl)ethyl]piperidin-4-yl}-N-methyl-1H-indole-6-carboxamide]?
A: IC50 (5-HT1A receptor; [1]): 0.18 nM; IC50 (5-HT1A receptor; [2]): 0.17 nM; L/H ratio (5-HT1A receptor): 0.9

Q: Which results are given for `CON=C1CCCc2c1ccc(OC)c2CCN1CCC(n2ccc3ccc(C(N)=O)cc32)CC1` [Compound 19, 1-{1-[2-(2-methoxy-5-methoxyimino-5,6,7,8-tetrahydronaphthalen-1-yl)ethyl]piperidin-4-yl}-1H-indole-6-carboxamide]?
A: IC50 (5-HT1A receptor; [1]): 1.1 nM; IC50 (5-HT1A receptor; [2]): 0.69 nM; L/H ratio (5-HT1A receptor): 0.6

Q: For `COc1ccc2cccnc2c1CCN1CCC(n2ccc3ccc(C(N)=O)cc32)CC1` [Compound 29, 1-{1-[2-(7-methoxyquinolin-8-yl)ethyl]piperidin-4-yl}-1H-indole-6-carboxamide], which IC50 (5-HT1A receptor; [1]) is on record?
A: 0.34 nM

Q: What about the IC50 (5-HT1A receptor; [2]) of the same molecule?
A: 0.3 nM

Q: What about the L/H ratio (5-HT1A receptor) of the same molecule?
A: 0.9

Q: Which results are given for `COc1ccc2c(c1CCN1CCC(n3ccc4ccc(C(N)=O)cc43)CC1)OCC(C)(C)C2=O` [Compound 37, 1-{1-[2-(7-methoxy-3,3-dimethyl-4-oxochroman-8-yl)ethyl]piperidin-4-yl}-1H-indole-6-carboxamide]?
A: IC50 (5-HT1A receptor; [1]): 0.55 nM; IC50 (5-HT1A receptor; [2]): 0.39 nM; L/H ratio (5-HT1A receptor): 0.7

Q: `COc1cc2c(cc1CCN1CCC(n3ccc4ccc(C(N)=O)cc43)CC1)N(C)C(=O)OC2` [Compound 39, 1-{1-[2-(6-methoxy-methyl-oxo-1,4-dihydro-2H-benz[d][1,3]oxazin-7-yl)ethyl]piperidin-4-yl}-1H-indole-6-carboxamide] was tested. Which IC50 (5-HT1A receptor; [1]) did it give?
A: 0.13 nM

Q: And the IC50 (5-HT1A receptor; [2])?
A: 0.09 nM

Q: What does the source list for `COCC1(C)CC(=O)c2ccc(OC)c(CCN3CCC(n4ccc5ccc(C(N)=O)cc54)CC3)c2O1` (stereo not shown) [Compound 40, 1-{1-[2-(7-methoxy-2-methoxymethyl-2-methyl-4-oxochroman-8-yl)ethyl]piperidin-4-yl}-1-H-indole-6-carboxamide]?
A: IC50 (5-HT1A receptor; [1]): 0.18 nM; IC50 (5-HT1A receptor; [2]): 0.17 nM; L/H ratio (5-HT1A receptor): 0.9

Q: For `COc1ccc2c(c1CCN1CCC(n3ccc4ccc(C(N)=O)cc43)CC1)OC1(CCCC1)CC2=O` [Compound 41, 1-{1-[2-(7-methoxy-4-oxo-spiro(chroman-2,1′-cyclopentan)-8-yl)ethyl]piperidin-4-yl}-1H-indole-6-carboxamide], which IC50 (5-HT1A receptor; [1]) is on record?
A: 0.2 nM

Q: And the IC50 (5-HT1A receptor; [2])?
A: 0.14 nM

Q: What about the L/H ratio (5-HT1A receptor) of the same molecule?
A: 0.7

Q: Which results are given for `COc1ccc2c(c1CCN1CCC(n3ccc4ccc(C(N)=O)cc43)CC1)OC1(CCOCC1)CC2=O` [Compound 43, 1-{1-[2-(7-methoxy-4-oxo-spiro(chroman-2,4′-oxan)-8-yl)ethyl]piperidin-4-yl}-1H-indole-6-carboxamide]?
A: IC50 (5-HT1A receptor; [1]): 0.22 nM; IC50 (5-HT1A receptor; [2]): 0.15 nM; L/H ratio (5-HT1A receptor): 0.7

Q: Which results are given for `COc1cc2c(cc1CCN1CCC(n3ccc4ccc(C(N)=O)cc43)CC1)C(O)CC2` (stereo not drawn) [Compound 50, 1-{l-[2-(3-hydroxy-6-methoxyindan-5-yl)ethyl]piperidin-4-yl}-1H-indole-6-carboxamide]?
A: IC50 (5-HT1A receptor; [1]): 0.21 nM; IC50 (5-HT1A receptor; [2]): 0.21 nM; L/H ratio (5-HT1A receptor): 1

Q: Which results are given for `COc1cc2c(cc1CCN1CCC(n3ccc4ccc(C(N)=O)cc43)CC1)NC(=O)CC2` [Compound 56, 1-{1-[2-(6-methoxy-2-oxo-1,2,3,4-tetrahydroquinolin-7-yl)ethyl]piperidin-4-yl}-1H-indole-6-carboxamide]?
A: IC50 (5-HT1A receptor; [1]): 0.07 nM; IC50 (5-HT1A receptor; [2]): 0.04 nM; L/H ratio (5-HT1A receptor): 0.5
